Laboratory results as given in ChEMBL document CHEMBL3407483, “Novel 3-nitrotriazole-based amides and carbinols as bifunctional antichagasic agents” (J Med Chem, 2015).
Activity calls are given as the source filed them. The calls are words filed in the database; no cut-off is given here.

System: Trypanosoma brucei rhodesiense
Assay: Antitrypanosomal activity against trypomastigote stage of Trypanosoma brucei rhodesiense STIB 900 assessed as parasite growth inhibition after 72 hrs by Alamar Blue assay
Assay type: functional, organism-based
Details: STIB 900, 72 h
`O=C(Cn1cnc([N+](=O)[O-])n1)c1ccc(F)cc1F` showed an IC50 of 34.1 µM. `O=C(Cn1cnc([N+](=O)[O-])n1)Nc1ccc(N2CCCCC2)cc1` gave an IC50 of 17 µM. For `Cc1ccc(S(=O)(=O)NC(Cc2ccccc2)Cn2cnc([N+](=O)[O-])n2)cc1` (centres undefined), the IC50 was 11.6 µM. Work on `Fc1ccc(C2(Cn3cncn3)Cn3ccnc3O2)c(F)c1` (centres undefined) yielded an IC50 of 221 µM. Work on `CC(O)(Cn1cnc([N+](=O)[O-])n1)c1ccc(-c2ccccc2)cc1` (centres undefined) yielded an IC50 of 1.09 µM. In the case of `O=C(Cn1cnc([N+](=O)[O-])n1)Nc1ccc(-c2ccc(Cl)cc2)cc1`, the IC50 is reported as 0.901 µM. Compound `Cc1nc(-c2cccc(NC(=O)Cn3cnc([N+](=O)[O-])n3)c2)cs1` has an IC50 of 7.04 µM. In the case of `CC(O)(Cn1cncn1)c1ccc(-c2ccccc2)cc1` (centres undefined), the IC50 is reported as 65.6 µM. Work on `O=[N+]([O-])c1ncn(CC(O)(Cn2cncn2)c2ccc(-c3ccccc3)cc2)n1` (centres undefined) yielded an IC50 of 2.88 µM. In the case of `O=C(Cn1cnc([N+](=O)[O-])n1)Nc1nc(-c2ccc(Cl)cc2)cs1`, the IC50 is reported as 4.06 µM.

System: Trypanosoma cruzi
Assay: Potency index, ratio of benznidazole IC50 to compound IC50 for amastigote stage of Trypanosoma cruzi Tulahuen C4 infected in rat L6 cells
Assay type: functional
Details: not given
In the case of `O=C(Cn1cnc([N+](=O)[O-])n1)Nc1ccc(-c2ccc(Cl)cc2)cc1`, the “Ratio IC50” value is reported as 45. For `O=[N+]([O-])c1ncn(CC(O)(Cn2cncn2)c2ccc(-c3ccccc3)cc2)n1` (centres undefined), the “Ratio IC50” value was 68.

System: not listed separately
Assay: Metabolic stability in human microsomes assessed as compound remaining at 1 uM after 60 mins by LC/MS/MS analysis in presence of NADPH
Assay type: ADME, Microsome
Details: read-out: Stability
Compound `O=[N+]([O-])c1ncn(CC(O)(Cn2cncn2)c2ccc(-c3ccccc3)cc2)n1` (centres undefined) has a remaining at 1 h, 1 µM of 90.7%.

System: Trypanosoma cruzi
Assay: Antichagasic activity against trypomastigote stage of Trypanosoma cruzi Brazil infected in Balb/c mouse assessed as reduction of parasite level at 13 mg/kg/day, ip measured after 5 days by luciferase reporter gene assay
Assay type: functional, organism-based
Details: not given
For `O=C(Cn1cnc([N+](=O)[O-])n1)Nc1ccc(-c2ccc(Cl)cc2)cc1`, the Activity was “Active”.

System: Mus musculus
Assay: Toxicity in Balb/c mouse at 13 mg/kg/day, ip measured after 5 to 10 days
Assay type: organism-based
Design: route intraperitoneal
Details: in vivo
With `O=C(Cn1cnc([N+](=O)[O-])n1)Nc1ccc(-c2ccc(Cl)cc2)cc1` the Activity was “Non-toxic”.

System: L6
Assay: Cytotoxicity against rat L6 cells assessed as growth inhibition after 72 hrs by Alamar Blue assay
Assay type: cell-based
Details: L6, 72 h
For `OC(Cn1cncn1)(Cn1cncn1)c1ccc(F)cc1F` [FLUCONAZOLE], the IC50 was > 294 µM. `O=C(Cn1cnc([N+](=O)[O-])n1)c1ccc(F)cc1F` gave an IC50 of 246 µM. In the case of `O=C(Cn1cnc([N+](=O)[O-])n1)Nc1ccc(N2CCCCC2)cc1`, the IC50 is reported as 103 µM. `Cc1ccc(S(=O)(=O)NC(Cc2ccccc2)Cn2cnc([N+](=O)[O-])n2)cc1` (centres undefined) showed an IC50 of 145 µM. With `Fc1ccc(C2(Cn3cncn3)Cn3ccnc3O2)c(F)c1` (centres undefined) the IC50 was > 286 µM. Work on `CC(O)(Cn1cnc([N+](=O)[O-])n1)c1ccc(-c2ccccc2)cc1` (centres undefined) yielded an IC50 of 86 µM. Work on `O=C(Cn1cnc([N+](=O)[O-])n1)Nc1ccc(-c2ccc(Cl)cc2)cc1` yielded an IC50 of 126 µM. For `Cc1nc(-c2cccc(NC(=O)Cn3cnc([N+](=O)[O-])n3)c2)cs1`, the IC50 was 67.3 µM. In the case of `CC(O)(Cn1cncn1)c1ccc(-c2ccccc2)cc1` (centres undefined), the IC50 is reported as 114 µM. `O=[N+]([O-])c1ncn(CC(O)(Cn2cncn2)c2ccc(-c3ccccc3)cc2)n1` (centres undefined) showed an IC50 of 127 µM. `O=C(Cn1cnc([N+](=O)[O-])n1)Nc1nc(-c2ccc(Cl)cc2)cs1` gave an IC50 of 98.8 µM.

Target: Sterol 14-alpha demethylase (Trypanosoma cruzi (strain CL Brener), UniProt Q7Z1V1)
Sequence (Q7Z1V1 whole entry): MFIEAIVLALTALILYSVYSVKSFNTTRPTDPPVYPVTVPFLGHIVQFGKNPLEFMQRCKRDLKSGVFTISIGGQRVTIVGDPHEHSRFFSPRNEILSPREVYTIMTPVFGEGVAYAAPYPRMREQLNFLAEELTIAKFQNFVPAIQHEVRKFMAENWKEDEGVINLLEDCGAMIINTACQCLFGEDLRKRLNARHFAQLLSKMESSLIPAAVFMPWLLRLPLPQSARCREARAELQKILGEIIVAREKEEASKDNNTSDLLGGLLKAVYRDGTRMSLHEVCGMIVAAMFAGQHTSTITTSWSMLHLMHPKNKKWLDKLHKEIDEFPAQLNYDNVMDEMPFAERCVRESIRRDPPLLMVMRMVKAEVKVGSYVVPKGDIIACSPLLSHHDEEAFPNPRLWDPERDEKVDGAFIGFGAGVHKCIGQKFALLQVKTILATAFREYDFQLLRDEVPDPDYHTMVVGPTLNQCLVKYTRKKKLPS
Assay: Binding affinity to recombinant full-length Trypanosoma cruzi CYP51 by UV-spectrophotometric analysis
Details: read-out: Kd(app)
Compound `O=[N+]([O-])c1ncn(CC(O)(Cn2cncn2)c2ccc(-c3ccccc3)cc2)n1` (centres undefined) has a Kd of 0.023 µM.

System: not listed separately
Assay: Apparent permeability across apical to basolateral side in human Caco2 cells at 10 uM after 2 hrs by LC/MS/MS analysis
Assay type: ADME, cell-based
Details: caco-2, 2 h
For `O=[N+]([O-])c1ncn(CC(O)(Cn2cncn2)c2ccc(-c3ccccc3)cc2)n1` (centres undefined), the Papp was 16.5 ×10⁻⁶ cm/s.

System: Trypanosoma cruzi
Assay: Antichagasic activity against trypomastigote stage of Trypanosoma cruzi Brazil infected in Balb/c mouse assessed as reduction of parasite index at 15 mg/kg/day, ip measured after 10 days by luciferase reporter gene assay relative to control
Assay type: functional
Design: scale not given: the % may be the effect or the level left
Details: route intraperitoneal
In the case of `O=C(Cn1ccnc1[N+](=O)[O-])NCc1ccccc1` [BENZNIDAZOLE], the Activity is reported as <4%. For `O=[N+]([O-])c1ncn(CC(O)(Cn2cncn2)c2ccc(-c3ccccc3)cc2)n1` (centres undefined), the Activity was <4%.

System: Trypanosoma cruzi
Assay: Antichagasic activity against trypomastigote stage of Trypanosoma cruzi Brazil infected in Balb/c mouse assessed as reduction of parasite index at 13 mg/kg/day, ip measured after 10 days by luciferase reporter gene assay relative to control
Assay type: functional
Design: scale not given: the % may be the effect or the level left
Details: route intraperitoneal
With `O=C(Cn1cnc([N+](=O)[O-])n1)Nc1ccc(-c2ccc(Cl)cc2)cc1` the Activity was <4%.

System: Mus musculus
Assay: Toxicity in Balb/c mouse at 15 mg/kg/day, ip measured after 5 to 10 days
Assay type: organism-based
Design: route intraperitoneal
Details: in vivo
In the case of `O=C(Cn1ccnc1[N+](=O)[O-])NCc1ccccc1` [BENZNIDAZOLE], the Activity is reported as “Non-toxic”. For `O=[N+]([O-])c1ncn(CC(O)(Cn2cncn2)c2ccc(-c3ccccc3)cc2)n1` (centres undefined), the Activity was “Non-toxic”.

System: Trypanosoma brucei
Assay: Activity of his-tagged recombinant Trypanosoma brucei type-1 nitroreductase assessed as oxidized NADH level per mg of protein after 5 mins by absorption spectrum analysis
Details: not given
`O=C(Cn1ccnc1[N+](=O)[O-])NCc1ccccc1` [BENZNIDAZOLE] showed an Activity of 1540 nmol/min. `O=[N+]([O-])c1ncn(CC(O)(Cn2cncn2)c2ccc(-c3ccccc3)cc2)n1` (centres undefined) showed an Activity of 2680 nmol/min.

System: Trypanosoma cruzi
Assay: Activity of his-tagged recombinant Trypanosoma cruzi type-1 nitroreductase assessed as oxidized NADH level per mg of protein after 5 mins by absorption spectrum analysis
Details: not given
For `O=C(Cn1ccnc1[N+](=O)[O-])NCc1ccccc1` [BENZNIDAZOLE], the Activity was 680 nmol/min. `O=[N+]([O-])c1ncn(CC(O)(Cn2cncn2)c2ccc(-c3ccccc3)cc2)n1` (centres undefined) showed an Activity of 1160 nmol/min.

System: Trypanosoma cruzi
Assay: Antichagasic activity against trypomastigote stage of Trypanosoma cruzi Brazil infected in Balb/c mouse assessed as parasite index at 15 mg/kg/day, ip measured after 5 days by luciferase reporter gene assay
Assay type: functional
Details: route intraperitoneal
For `O=C(Cn1ccnc1[N+](=O)[O-])NCc1ccccc1` [BENZNIDAZOLE], the Activity was 13.38. `O=[N+]([O-])c1ncn(CC(O)(Cn2cncn2)c2ccc(-c3ccccc3)cc2)n1` (centres undefined) showed an Activity of 42.04.

System: not listed separately
Assay: Metabolic stability in mouse microsomes assessed as compound remaining at 1 uM after 60 mins by LC/MS/MS analysis in absence of NADPH
Assay type: ADME, Microsome
Details: read-out: Stability
Compound `O=[N+]([O-])c1ncn(CC(O)(Cn2cncn2)c2ccc(-c3ccccc3)cc2)n1` (centres undefined) has a remaining at 1 h, 1 µM of 102%.

System: Trypanosoma cruzi
Assay: Antitrypanosomal activity against amastigote stage of Trypanosoma cruzi Tulahuen C4 infected in rat L6 cells assessed as parasite growth inhibition after 96 hrs by colorimetric analysis
Assay type: functional, organism-based
Details: Tulahuen C4, L6, 96 h
In the case of `OC(Cn1cncn1)(Cn1cncn1)c1ccc(F)cc1F` [FLUCONAZOLE], the IC50 is reported as 9.97 µM. In the case of `O=C(Cn1cnc([N+](=O)[O-])n1)c1ccc(F)cc1F`, the IC50 is reported as 1.19 µM. With `O=C(Cn1cnc([N+](=O)[O-])n1)Nc1ccc(N2CCCCC2)cc1` the IC50 was 0.554 µM. Work on `Cc1ccc(S(=O)(=O)NC(Cc2ccccc2)Cn2cnc([N+](=O)[O-])n2)cc1` (centres undefined) yielded an IC50 of 0.339 µM. `Fc1ccc(C2(Cn3cncn3)Cn3ccnc3O2)c(F)c1` (centres undefined) gave an IC50 of 5.79 µM. Compound `CC(O)(Cn1cnc([N+](=O)[O-])n1)c1ccc(-c2ccccc2)cc1` (centres undefined) has an IC50 of 0.102 µM. With `O=C(Cn1cnc([N+](=O)[O-])n1)Nc1ccc(-c2ccc(Cl)cc2)cc1` the IC50 was 0.045 µM. Compound `Cc1nc(-c2cccc(NC(=O)Cn3cnc([N+](=O)[O-])n3)c2)cs1` has an IC50 of 0.552 µM. For `CC(O)(Cn1cncn1)c1ccc(-c2ccccc2)cc1` (centres undefined), the IC50 was 0.706 µM. Compound `O=[N+]([O-])c1ncn(CC(O)(Cn2cncn2)c2ccc(-c3ccccc3)cc2)n1` (centres undefined) has an IC50 of 0.033 µM. Work on `O=C(Cn1cnc([N+](=O)[O-])n1)Nc1nc(-c2ccc(Cl)cc2)cs1` yielded an IC50 of 0.102 µM.

System: not listed separately
Assay: Selectivity index, ratio of IC50 for rat L6 cells to IC50 for amastigote stage of Trypanosoma cruzi Tulahuen C4 infected in rat L6 cells
Assay type: toxicity, cell-based
Details: read-out: Ratio IC50
Work on `O=C(Cn1cnc([N+](=O)[O-])n1)c1ccc(F)cc1F` yielded a selectivity ratio of 206. `O=C(Cn1cnc([N+](=O)[O-])n1)Nc1ccc(N2CCCCC2)cc1` gave a selectivity ratio of 186. For `Cc1ccc(S(=O)(=O)NC(Cc2ccccc2)Cn2cnc([N+](=O)[O-])n2)cc1` (centres undefined), the selectivity ratio was 428. In the case of `Fc1ccc(C2(Cn3cncn3)Cn3ccnc3O2)c(F)c1` (centres undefined), the selectivity ratio is reported as > 49.4. In the case of `CC(O)(Cn1cnc([N+](=O)[O-])n1)c1ccc(-c2ccccc2)cc1` (centres undefined), the selectivity ratio is reported as 844. With `O=C(Cn1cnc([N+](=O)[O-])n1)Nc1ccc(-c2ccc(Cl)cc2)cc1` the selectivity ratio was 2800. In the case of `Cc1nc(-c2cccc(NC(=O)Cn3cnc([N+](=O)[O-])n3)c2)cs1`, the selectivity ratio is reported as 122. In the case of `CC(O)(Cn1cncn1)c1ccc(-c2ccccc2)cc1` (centres undefined), the selectivity ratio is reported as 162. `O=[N+]([O-])c1ncn(CC(O)(Cn2cncn2)c2ccc(-c3ccccc3)cc2)n1` (centres undefined) gave a selectivity ratio of 3810. With `O=C(Cn1cnc([N+](=O)[O-])n1)Nc1nc(-c2ccc(Cl)cc2)cs1` the selectivity ratio was 973.

System: not listed separately
Assay: Selectivity index, ratio of IC50 for rat L6 cells to IC50 for trypomastigote stage of Trypanosoma brucei rhodesiense STIB 900
Assay type: toxicity, cell-based
Details: read-out: Ratio IC50
For `CC(O)(Cn1cnc([N+](=O)[O-])n1)c1ccc(-c2ccccc2)cc1` (centres undefined), the selectivity ratio was 78.9. `O=C(Cn1cnc([N+](=O)[O-])n1)Nc1ccc(-c2ccc(Cl)cc2)cc1` gave a selectivity ratio of 140. `Cc1nc(-c2cccc(NC(=O)Cn3cnc([N+](=O)[O-])n3)c2)cs1` gave a selectivity ratio of 10. With `CC(O)(Cn1cncn1)c1ccc(-c2ccccc2)cc1` (centres undefined) the selectivity ratio was 1.74. Work on `O=[N+]([O-])c1ncn(CC(O)(Cn2cncn2)c2ccc(-c3ccccc3)cc2)n1` (centres undefined) yielded a selectivity ratio of 44. In the case of `O=C(Cn1cnc([N+](=O)[O-])n1)Nc1nc(-c2ccc(Cl)cc2)cs1`, the selectivity ratio is reported as 24.

System: not listed separately
Assay: Metabolic stability in human microsomes assessed as compound remaining at 1 uM after 60 mins by LC/MS/MS analysis in absence of NADPH
Assay type: ADME, Microsome
Details: read-out: Stability
Work on `O=[N+]([O-])c1ncn(CC(O)(Cn2cncn2)c2ccc(-c3ccccc3)cc2)n1` (centres undefined) yielded a remaining at 1 h, 1 µM of 106%.

System: not listed separately
Assay: Metabolic stability in mouse microsomes assessed as compound remaining at 1 uM after 60 mins by LC/MS/MS analysis in presence of NADPH
Assay type: ADME, Microsome
Details: read-out: Stability
Compound `O=[N+]([O-])c1ncn(CC(O)(Cn2cncn2)c2ccc(-c3ccccc3)cc2)n1` (centres undefined) has a remaining at 1 h, 1 µM of 77.6%.
